Laboratory results reported in US20240239846A1, “METHODS OF ANALYSING A SAMPLE” (THE UNIVERSITY OF ADELAIDE, priority 2021, published 2024).
“Also recorded” adds a separate entry of the source.

What was measured:
[1] = SPR analysis of glycan binding (all tested glycans); details: lectin immobilized on CM5 chip; glycans up to a concentration of 20 μM; FIG. 1B
Description: SubBA12 was analysed for binding to a range of Neu5Ac, Neu5Gc and non-sialylated synthetic oligosaccharides using SPR.
For glycan analysis, SubB2M was immobilized through flow cells 2 and 3 and SubBA12 was immobilized through flow cell 4 (capture levels: 5000-6000 Response Units (RU)) onto a series S sensor chip CM5 (GE) using the NHS capture kit. Flow cell 1 was run as a blank immobilization. Glycans purchased from Chemily Glycoscience (Atlanta, GA) were analysed across a five-fold dilution series in PBS at a maximum concentration of 20 μM. Analysis was run using single cycle analysis and double reference subtraction on the Biacore S200 evaluation software.

[2] = Ser12>Ala12 mutation; described previously (Byres et al, 2008); cited from earlier work
[3] = Neu5Ac/Neu5Gc glycan microarray analysis; assay type: binding; details: ZBiotech Neu5Gc/Neu5Ac N-Glycan Array, FIG. 1A
From the text: A Neu5Ac/Neu5Gc glycan microarray (as previously used in Wang et al, 2018, Biophys Biochem Res Commun 500:765-771; ZBiotech Neu5Gc/Neu5Ac N-Glycan Array) was utilised to determine the binding of SubBA12 to sialylated glycans with SubB2M used as a control. This glycan array comprises over 40 match pairs of glycans covalently linked to the array slide surface. Each pair of glycans is identical apart from the presence of either a Neu5Ac or Neu5Gc moiety.
Neu5Ac/Neu5Gc glycan array slides were purchased from Z-Biotech (Aurora, Colorado, USA, https://www.zbiotech.com/neu5gc-neu5ac-n-glycan-array.html). A 16-subarray slide array was used and glycan array analysis of SubB2M and SubBA12 was performed as per the manufacturer's protocols. Arrays were scanned using a Innocan 1100AL laser scanner and analysed using Mapix array analysis software.

Substance: SubBA12: mutant form of SubB (Ser12>Ala12) having the amino acid sequence of SEQ ID NO: 4; lacks or has substantially reduced sialic acid binding
- binding (concentration dependent interaction) to any of the tested glycans by SPR [1]: No binding; also recorded: No concentration dependent interactions
- binding to sialylated glycans [2]: cannot bind
- binding to Neu5Ac-containing glycans on glycan array [3]: Essentially no binding; also recorded: little to no recognition
- binding to Neu5Gc-containing glycans on glycan array [3]: Essentially no binding; also recorded: little to no recognition
